Experiment: Shelf life stability program of bupropion HBr, 25° C./60% RH, 3 and 6 months, HPLC
Assay type: physicochemical
Settings: 25° C., R.H. 60%; for Chromatographic purity B) (HPLC) 4) 2-N-(tert-Butyl)-aminopropiophenone / Chromatographic purity B) (HPLC) 5) single unknown impurity (each): LOQ 0.02%, LOD 0.002%; for Chromatographic purity A) (HPLC) 1) 3′-Chloropropiophenone / Chromatographic purity A) (HPLC) 3) 3′-Chlorobenzoic acid / Chromatographic purity A) (HPLC) 2) 3′-Chloro-2-bromopropiophenone: LOQ 0.05%; for Chromatographic purity A) (HPLC) 1) 3′-Chloropropiophenone / Chromatographic purity A) (HPLC) 3) 3′-Chlorobenzoic acid: LOD 0.01%; for Chromatographic purity A) (HPLC) 2) 3′-Chloro-2-bromopropiophenone: LOD 0.04%
Method: The stability of bupropion HBr was studied over a longer term under conditions meant to approximate standard storage or shelf conditions. Samples were prepared in closed containers and subjected to long-term storage at 25° C.+2° C. and 60%+5% RH in a stability chamber. The samples were analyzed by HPLC prior to being placed in the stability chamber (time 0) and after 3 months and 6 months. The amounts of the main degradation products present at time 0 were compared with the amounts present at 3 months and 6 months. As shown in Table 77-79 three different batches of bupropion HBr were tested. As in Example 10 each sample was tested under two HPLC assay conditions to identify 6 impurities or groups of impurities as described in Example 10.

Q: What does the source list for `Br.CC(NC(C)(C)C)C(=O)c1cccc(Cl)c1` (stereo not drawn) [Bupropion•HBr]?
A: Assay (HPLC) (Batch D00895, time 0): 99.2 % on d.b.; Chromatographic purity (HPLC: A + B) Total impurities (Batch D00895, time 0): 0.1%; Chromatographic purity B) (HPLC) 6) total unknown impurities (Batch D00895, time 0): 6) 0.04%; Description (white or almost white crystalline powder) (Batch D00895, time 0): conform; Identification IR, HPLC (Batch D00895, time 0): positive; Water content (K.F.) (Batch D00895, time 0): 0.04%; Chromatographic purity B) (HPLC) 4) 2-N-(tert-Butyl)-aminopropiophenone (Batch D00895, time 0): 4) 0.04%; Chromatographic purity B) (HPLC) 5) single unknown impurity (each) (Batch D00895, time 0): 5) 0.04%; Chromatographic purity A) (HPLC) 1) 3′-Chloropropiophenone (Batch D00895, time 0): 1) n.d.; Chromatographic purity A) (HPLC) 3) 3′-Chlorobenzoic acid (Batch D00895, time 0): 3) n.q.; Chromatographic purity A) (HPLC) 2) 3′-Chloro-2-bromopropiophenone (Batch D00895, time 0): 2) n.d.; Assay (HPLC) (Batch D00896, 3 months): 99.4 % on d.b.; Chromatographic purity (HPLC: A + B) Total impurities (Batch D00896, 3 months): 0.1%; Chromatographic purity B) (HPLC) 6) total unknown impurities (Batch D00896, 3 months): 6) 0.05%; Description (white or almost white crystalline powder) (Batch D00896, 3 months): conform; Identification IR, HPLC (Batch D00896, 3 months): positive; Water content (K.F.) (Batch D00896, 3 months): 0.04%; Chromatographic purity B) (HPLC) 4) 2-N-(tert-Butyl)-aminopropiophenone (Batch D00896, 3 months): 4) 0.03%; Chromatographic purity B) (HPLC) 5) single unknown impurity (each) (Batch D00896, 3 months): 5) 0.04%; Chromatographic purity A) (HPLC) 1) 3′-Chloropropiophenone (Batch D00896, 3 months): 1) n.q.; Chromatographic purity A) (HPLC) 3) 3′-Chlorobenzoic acid (Batch D00896, 3 months): 3) n.q.; Chromatographic purity A) (HPLC) 2) 3′-Chloro-2-bromopropiophenone (Batch D00896, 3 months): 2) n.d.; Assay (HPLC) (Batch D00896, 6 months): 100.5 % on d.b.; Chromatographic purity (HPLC: A + B) Total impurities (Batch D00896, 6 months): 0.1%; Chromatographic purity B) (HPLC) 6) total unknown impurities (Batch D00896, 6 months): 6) n.q.; Description (white or almost white crystalline powder) (Batch D00896, 6 months): conform; Identification IR, HPLC (Batch D00896, 6 months): positive; Water content (K.F.) (Batch D00896, 6 months): 0.04%; Chromatographic purity B) (HPLC) 4) 2-N-(tert-Butyl)-aminopropiophenone (Batch D00896, 6 months): 4) 0.04%; Chromatographic purity B) (HPLC) 5) single unknown impurity (each) (Batch D00896, 6 months): 5) n.q.; Chromatographic purity A) (HPLC) 1) 3′-Chloropropiophenone (Batch D00896, 6 months): 1) 0.05%; Chromatographic purity A) (HPLC) 3) 3′-Chlorobenzoic acid (Batch D00896, 6 months): 3) n.q.; Chromatographic purity A) (HPLC) 2) 3′-Chloro-2-bromopropiophenone (Batch D00896, 6 months): 2) n.d.; Assay (HPLC) (Batch D00896, 9 months): 99.4 % on d.b.; Chromatographic purity (HPLC: A + B) Total impurities (Batch D00896, 9 months): n.q.; Chromatographic purity B) (HPLC) 6) total unknown impurities (Batch D00896, 9 months): 6) n.q.; Description (white or almost white crystalline powder) (Batch D00896, 9 months): conform; Identification IR, HPLC (Batch D00896, 9 months): positive; Water content (K.F.) (Batch D00896, 9 months): 0.04%; Chromatographic purity B) (HPLC) 4) 2-N-(tert-Butyl)-aminopropiophenone (Batch D00896, 9 months): 4) n.d.; Chromatographic purity B) (HPLC) 5) single unknown impurity (each) (Batch D00896, 9 months): 5) n.q.; Chromatographic purity A) (HPLC) 1) 3′-Chloropropiophenone (Batch D00896, 9 months): 1) n.q.; Chromatographic purity A) (HPLC) 3) 3′-Chlorobenzoic acid (Batch D00896, 9 months): 3) n.q.; Chromatographic purity A) (HPLC) 2) 3′-Chloro-2-bromopropiophenone (Batch D00896, 9 months): 2) n.d.; Assay (HPLC) (Batch D00896, 12 months): 100.3 % on d.b.; Chromatographic purity (HPLC: A + B) Total impurities (Batch D00896, 12 months): 0.1%; Chromatographic purity B) (HPLC) 6) total unknown impurities (Batch D00896, 12 months): 6) 0.07%; Description (white or almost white crystalline powder) (Batch D00896, 12 months): conform; Identification IR, HPLC (Batch D00896, 12 months): positive; Water content (K.F.) (Batch D00896, 12 months): 0.03%; Chromatographic purity B) (HPLC) 4) 2-N-(tert-Butyl)-aminopropiophenone (Batch D00896, 12 months): 4) 0.05%; Chromatographic purity B) (HPLC) 5) single unknown impurity (each) (Batch D00896, 12 months): 5) 0.07%; Chromatographic purity A) (HPLC) 1) 3′-Chloropropiophenone (Batch D00896, 12 months): 1) n.d.; Chromatographic purity A) (HPLC) 3) 3′-Chlorobenzoic acid (Batch D00896, 12 months): 3) n.q.; Chromatographic purity A) (HPLC) 2) 3′-Chloro-2-bromopropiophenone (Batch D00896, 12 months): 2) n.d.; Assay (HPLC) (Batch D00896, time 0): 99.3 % on d.b.; Chromatographic purity (HPLC: A + B) Total impurities (Batch D00896, time 0): 0.1%; Chromatographic purity B) (HPLC) 6) total unknown impurities (Batch D00896, time 0): 6) 0.05%; Description (white or almost white crystalline powder) (Batch D00896, time 0): conform; Identification IR, HPLC (Batch D00896, time 0): positive; Water content (K.F.) (Batch D00896, time 0): 0.06%; Chromatographic purity B) (HPLC) 4) 2-N-(tert-Butyl)-aminopropiophenone (Batch D00896, time 0): 4) 0.04%; Chromatographic purity B) (HPLC) 5) single unknown impurity (each) (Batch D00896, time 0): 5) 0.05%; Chromatographic purity A) (HPLC) 1) 3′-Chloropropiophenone (Batch D00896, time 0): 1) n.d.; Chromatographic purity A) (HPLC) 3) 3′-Chlorobenzoic acid (Batch D00896, time 0): 3) n.q.; Chromatographic purity A) (HPLC) 2) 3′-Chloro-2-bromopropiophenone (Batch D00896, time 0): 2) n.d.

Reference: patent US7884136B2, “Modified-release formulations of a bupropion salt” (Biovail Laboratories International S.R.L., priority 2005, dated 2011)
